Reference: PubChem BioAssay (NCI)
Values joined by “and” are separate entries in the source; they are usually repeats but may differ in a detail not shown here. Equal entries are not always repeated.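 Values below derive from 48-hour exposures of cells grown in 96-well plates, with endpoints linearly interpolated between the two concentrations bracketing the appropriate inhibition level. Abbreviation: GI50, concentration required for 50% inhibition of growth. Definition used: TGI = concentration required for complete inhibition of growth.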

Legend:
Assay in all cases: DTP human tumour cell line panel, 48 h
SNB-19 CNS = test system: SNB-19 CNS
SF-268 CNS = test system: SF-268 CNS
HOP-92 NSCLC = test system: HOP-92 NSCLC
MCF7 breast = test system: MCF7 breast
CCRF-CEM leukemia = test system: CCRF-CEM leukemia
LOX IMVI melanoma = test system: LOX IMVI melanoma
NCI-H522 lung = test system: NCI-H522 lung
MDA-MB-435 = test system: MDA-MB-435
HCT-15 colon = test system: HCT-15 colon
M14 melanoma = test system: M14 melanoma

SMILES	GI50 (SNB-19 CNS)	TGI (SNB-19 CNS)	GI50 (SF-268 CNS)	TGI (SF-268 CNS)	GI50 (HOP-92 NSCLC)	TGI (HOP-92 NSCLC)	GI50 (MCF7 breast)	TGI (MCF7 breast)	GI50 (CCRF-CEM leukemia)	TGI (CCRF-CEM leukemia)	GI50 (LOX IMVI melanoma)	TGI (LOX IMVI melanoma)	GI50 (NCI-H522 lung)	TGI (NCI-H522 lung)	GI50 (MDA-MB-435)	TGI (MDA-MB-435)	GI50 (HCT-15 colon)	TGI (HCT-15 colon)	TGI (M14 melanoma)	GI50 (M14 melanoma)
COc1ccc(C(C)=O)cc1N1C(=O)C2C(C1=O)C1(c3ccccc3)C(=O)C2(c2ccccc2)C(c2ccc(C)cc2)=C1c1ccc(C)cc1 (stereo not given)	> 100000 nM	> 100000 nM	> 100000 nM	> 100000 nM	21700 nM	> 100000 nM	> 100000 nM	> 100000 nM	> 100000 nM	> 100000 nM	> 100000 nM	> 100000 nM	> 100000 nM	> 100000 nM	> 100000 nM	> 100000 nM	> 100000 nM	> 100000 nM	–	–
CC(CCC=O)CCOCc1ccccc1 (stereo not given)	–	> 100000 nM	–	> 100000 nM	–	> 100000 nM	–	22700 nM	–	> 84200 nM	–	> 91200 nM	–	> 100000 nM	–	> 100000 nM	–	> 100000 nM	> 100000 nM	–
S=C1NC2(CCCCCC2)NN1c1ccccc1	–	> 100000 nM	–	> 100000 nM	–	> 100000 nM	–	> 100000 nM	–	> 64900 nM	–	> 100000 nM	–	> 100000 nM	–	> 100000 nM	–	> 100000 nM	> 100000 nM	–
O=C(Nc1nc2ccc(C(F)(F)F)cc2s1)c1cc(Cl)ccc1O	629 nM	> 100000 nM	497 nM	> 100000 nM	116 nM	489 nM	2180 nM	> 100000 nM	378 nM	96500 nM	1330 nM	15800 nM	278 nM	2080 nM	1690 nM	> 100000 nM	346 nM	12900 nM	23900 nM	935 nM
CCN(CC)CCOc1ccc(-c2nc3cc(Cl)ccc3s2)cc1	2260 nM	5360 nM	–	–	1220 nM	4200 nM	1450 nM	2830 nM	565 nM	3140 nM	1390 nM	2680 nM	1800 nM	3530 nM	1650 nM	3180 nM	1190 nM	2420 nM	3210 nM	1730 nM
CCN(CC)c1ccc2c(c1)OC(N)=C(C#N)C2c1cc(OC)c2c(c1)OCO2 (stereo not given)	41.8 nM	51000 nM	60 nM	3030 nM	107 nM	3580 nM	29.4 nM	11500 nM	30.8 nM	1710 nM	57.7 nM	3860 nM	–	47.4 nM	< 10.8 nM	27.6 nM	34.9 nM	3930 nM	45.9 nM	13.8 nM
CCN(CC)CCCC(CNc1ccnc2cc(Cl)ccc12)c1ccc(Cl)cc1 (stereo not given)	1900 nM and 2730 nM	4170 nM and 6900 nM	1560 nM and 1710 nM	3310 nM and 4550 nM	1440 nM and 1160 nM	3120 nM and 2780 nM	1310 nM and 1240 nM	3150 nM and 2710 nM	1710 nM and 1200 nM	5170 nM and 4600 nM	764 nM and 353 nM	2130 nM and 1360 nM	1690 nM and 859 nM	3510 nM and 2550 nM	1190 nM and 204 nM	2550 nM and 462 nM	535 nM and 984 nM	2100 nM and 2620 nM	612 nM and 405 nM	227 nM and 203 nM
Cn1cc(CO)c2c1C(=O)C=C(N1CC1)C2=O	< 19.7 nM	862 nM	< 15.4 nM	2350 nM	898 nM	4000 nM	< 10 nM	–	260 nM	11200 nM	< 10 nM	18.4 nM	< 10 nM	77.5 nM	< 10 nM	40 nM	< 10 nM	81.8 nM	< 10 nM	< 10 nM
C=C1C(=O)OC2CCN3CC=C(COC(=O)C(C)(O)C4(CO4)C1C)C23 (stereo not given)	–	> 100000 nM	–	> 100000 nM	–	> 100000 nM	–	> 100000 nM	–	> 100000 nM	–	> 100000 nM	–	> 100000 nM	–	> 100000 nM	–	> 100000 nM	> 100000 nM	–
COc1ccc(/C=C(/C(=O)N2CCN(c3ccccc3)CC2)c2cc(OC)c(OC)c(OC)c2)cc1O	481 nM	> 100000 nM	543 nM	> 100000 nM	22000 nM	> 100000 nM	307 nM	> 100000 nM	355 nM	> 100000 nM	398 nM	> 100000 nM	128 nM	594 nM	150 nM	514 nM	341 nM	> 100000 nM	24000 nM	315 nM
N#Cc1c(NN)n(C2OC(CO)C(O)C2O)c2ncnc(N)c12 (stereo not given)	395 nM	> 29500 nM	171 nM	> 45300 nM	142 nM	1430 nM	31.5 nM	2870 nM	130 nM	605 nM	51.3 nM	328 nM	198 nM	469 nM	104 nM	916 nM	19.8 nM	–	303 nM	53.2 nM
CN1CCN(CCOc2ccc(-c3cnc4c(-c5ccccc5F)cnn4c3)cc2)CC1	1730 nM	3260 nM	2040 nM	4730 nM	1310 nM	3150 nM	1320 nM	2970 nM	1850 nM	4770 nM	1810 nM	3270 nM	1690 nM	3390 nM	1700 nM	3100 nM	1250 nM	2630 nM	3520 nM	1820 nM
O=C(OC(CNc1cc(=O)n(Cc2ccccc2)c(=O)n1Cc1ccccc1)CN1CCCC1)c1ccccc1 (stereo not given)	> 100000 nM	> 100000 nM	> 100000 nM	> 100000 nM	–	–	> 100000 nM	> 100000 nM	23700 nM	> 100000 nM	> 100000 nM	> 100000 nM	> 100000 nM	> 100000 nM	> 100000 nM	> 100000 nM	> 100000 nM	> 100000 nM	> 100000 nM	> 100000 nM
NC(=Nc1c([N+](=O)[O-])cnc2ccccc12)N1CCOCC1	–	> 100000 nM	–	> 100000 nM	–	–	–	> 100000 nM	–	> 100000 nM	–	> 100000 nM	–	> 100000 nM	–	> 100000 nM	–	> 100000 nM	> 100000 nM	–
